Results reported in patent US7803795B2, “Phthalazine derivatives as parp inhibitors” (Janssen Pharmaceutica N.V., priority 2004, dated 2010).

These compounds were tested against T1, TANK-2 enzyme (Homo sapiens, UniProt Q9H2K2) (assay: in vitro Scintillation Proximity Assay (SPA) for TANK-2 inhibitory activity).
T1 construct: His tag (inferred from capture on a Ni-coated plate); made in house
T1 sequence (Q9H2K2 1-1166): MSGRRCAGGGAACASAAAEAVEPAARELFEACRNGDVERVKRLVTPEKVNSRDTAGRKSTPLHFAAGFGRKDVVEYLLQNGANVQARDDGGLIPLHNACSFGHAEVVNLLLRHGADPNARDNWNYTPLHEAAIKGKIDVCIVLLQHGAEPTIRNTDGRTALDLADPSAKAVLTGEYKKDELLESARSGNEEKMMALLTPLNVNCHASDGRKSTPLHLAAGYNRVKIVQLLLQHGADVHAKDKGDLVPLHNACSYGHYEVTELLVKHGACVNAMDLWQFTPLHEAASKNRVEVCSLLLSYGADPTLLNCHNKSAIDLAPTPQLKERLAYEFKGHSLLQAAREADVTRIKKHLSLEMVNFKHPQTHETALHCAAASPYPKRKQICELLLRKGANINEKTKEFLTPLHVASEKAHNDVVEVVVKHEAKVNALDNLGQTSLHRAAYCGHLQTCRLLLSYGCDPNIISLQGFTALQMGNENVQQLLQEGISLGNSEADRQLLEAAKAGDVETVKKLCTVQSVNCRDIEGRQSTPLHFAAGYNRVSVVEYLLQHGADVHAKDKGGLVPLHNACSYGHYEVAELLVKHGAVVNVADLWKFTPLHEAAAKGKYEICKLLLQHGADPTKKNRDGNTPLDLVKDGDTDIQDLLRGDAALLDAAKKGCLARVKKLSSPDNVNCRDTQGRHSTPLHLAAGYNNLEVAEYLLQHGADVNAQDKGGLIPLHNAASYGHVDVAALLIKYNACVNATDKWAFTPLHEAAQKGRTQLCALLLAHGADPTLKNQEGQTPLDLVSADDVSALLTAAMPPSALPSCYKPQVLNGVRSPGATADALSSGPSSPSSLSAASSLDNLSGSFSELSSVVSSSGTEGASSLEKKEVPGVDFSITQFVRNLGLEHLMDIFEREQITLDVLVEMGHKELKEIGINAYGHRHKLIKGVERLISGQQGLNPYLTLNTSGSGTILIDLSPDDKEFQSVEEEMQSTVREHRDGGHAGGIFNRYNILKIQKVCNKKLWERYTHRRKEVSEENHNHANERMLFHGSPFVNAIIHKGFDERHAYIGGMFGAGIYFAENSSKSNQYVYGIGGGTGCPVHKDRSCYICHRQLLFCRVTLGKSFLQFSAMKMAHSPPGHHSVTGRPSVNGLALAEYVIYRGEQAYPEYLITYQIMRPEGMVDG
Format: biochemical
Method: In Vitro Scintillation Proximity Assay (SPA) for Tank-2 Inhibitory Activity
Compounds of the present invention were tested in an in vitro assay based on SPA technology with Ni Flash plates (96 or 384 well).
In principle, the assay relies upon SPA technology for the detection of auto-poly(ADP-ribosylation of TANK-2 protein using [^3H]-nicotinamide adenine dinucleotide ([^3H]-NAD^+) as ADP-ribosyl donor.
A stock solution of [^3H]-NAD^+/NAD was made by adding 64.6 μl of [^3H]-NAD^+ (0.1 mCi/ml, supplier: Perkin Elmer) and 46.7 μl NAD-stock (10.7 mM, stored at −20° C., supplier Roche) to 1888.7 μl assay buffer (60 mM Tris/HCl, pH 7.4; 0.9 mM DTT; 6 mM MgCl2). The TANK-2 enzyme was produced as described in EP1238063.60 μl of assay buffer, together with 1 μl of compound in DMSO, 20 μl of [^3H]-NAD^+/NAD and 20 μl of TANK-2 enzyme (final concentration 6 μg/ml) was added per well into a 96-well Ni-coated flash plate (Perkin Elmer). After incubation of the mixture for 120 min. at room temperature, the reaction was terminated by adding 60 μl of stopsolution (42.6 mg NAD in 6 ml H2O). The plates were covered with a plate sealer and placed in a TopCountNXT™ (Packard) for scintillation counting. Values were expressed as counts per minute (cpm). For each experiment, controls (containing TANK-2 enzyme and DMSO without compound), a blank incubation (containing DMSO but no TANK-2 enzyme or compound) and samples (containing TANK-2 enzyme and compound dissolved in DMSO) were run in parallel. All compounds tested were dissolved and eventually further diluted in DMSO. […] In each test, the blank value was subtracted from both the control and the sample values. The control sample represented maximal TANK-2 enzyme activity. For each sample, the amount of cpm was expressed as a percentage of the mean cpm value of the controls. When appropriate, IC50-values (concentration of the drug, needed to reduce the TANK-2 enzyme activity to 50% of the control) were computed using linear interpolation between the experimental points just above and below the 50% level. Herein the effects of test compounds are expressed as pIC50 (the negative log value of the IC50-value). As reference compounds, 3-aminobenzamide and 4-amino-1,8-naphthalimide were included to validate the SPA assay. Herein the assay was described using 96-well plates. In the assay using 384-well plates the same final concentrations were used and volumes were adapted.
Work on O=c1[nH]nc(NCC2CCCN(CCCC(c3ccc(F)cc3)c3ccc(F)cc3)C2)c2ccccc12 (centres unmarked) [Compound 49] yielded an IC50 of 1.56 µM.
With CCOC(=O)N1CCN(c2nnc(Cl)c3ccccc23)CC1 [Compound 58] the IC50 was 9.02 µM.
O=c1[nH]nc(NC2CCN(C/C=C/c3ccccc3)CC2)c2ccccc12 [Compound 65] showed an IC50 greater than 10 µM.
O=c1[nH]nc(N[C@@H]2C[C@H]3CC[C@@H](C2)N3)c2ccccc12 [Compound 15] gave an IC50 greater than 10 µM.
In the case of O=c1[nH]nc(NC2CCCNCC2)c2ccccc12 (centres unmarked) [Compound 34], the IC50 is reported as greater than 10 µM.
COc1ccc(CCN2CCC(Nc3n[nH]c(=O)c4ccccc34)CC2)cc1 [Compound 63] showed an IC50 greater than 10 µM.
O=c1[nH]nc(NC2CCN(C[C@@H](O)[C@@H]3CCc4ccccc4O3)CC2)c2ccccc12 (relative stereo) [Compound 27] was tested, and the IC50 was greater than 10 µM.
Cc1nc2sccn2c(=O)c1CCN1CCN(c2nnc(C)c3ccccc23)CC1 [Compound 73] was tested, and the IC50 was greater than 10 µM.
In the case of CCOC(=O)N1CCC(Nc2n[nH]c(=O)c3ccccc23)CC1 [Compound 56], the IC50 is reported as greater than 10 µM.
O=c1[nH]nc(NC2CCCN(CCCC(c3ccc(F)cc3)c3ccc(F)cc3)CC2)c2ccccc12 (centres unmarked) [Compound 30] showed an IC50 of 4 µM.
In the case of O=c1[nH]nc(N2CCN(CCCC(c3ccc(F)cc3)c3ccc(F)cc3)CC2)c2ccccc12 [Compound 52], the IC50 is reported as 6.55 µM.
For O=c1[nH]nc(NCC2CCCN(Cc3ccccc3)C2)c2ccccc12 (centres unmarked) [Compound 44], the IC50 was greater than 10 µM.
Cc1nnc(N2CCN(CCn3c(=O)[nH]c4ccccc43)CC2)c2ccccc12 [Compound 71] showed an IC50 greater than 10 µM.
In the case of O=c1[nH]nc(C2CCNCC2)c2ccccc12 [Compound 4], the IC50 is reported as greater than 10 µM.
O=c1[nH]nc(C2CCN(Cc3ccccc3)CC2)c2ccccc12 [Compound 1] gave an IC50 of 8.43 µM.
O=c1[nH]nc(NC2CCCN(Cc3ccccc3)C2)c2ccccc12 (centres unmarked) [Compound 53] showed an IC50 greater than 10 µM.
For Cc1nc2n(c(=O)c1CCN1CCN(c3nnc(C)c4ccccc34)CC1)CCCS2 [Compound 76], the IC50 was greater than 10 µM.
For O=c1[nH]nc(C2CCN(C/C=C/c3ccccc3)CC2)c2ccccc12 [Compound 66], the IC50 was 4.33 µM.
Compound Clc1nnc(N2CCN(c3ccccc3)CC2)c2ccccc12 [Compound 77] has an IC50 of 8.83 µM.
Compound O=c1[nH]nc(NC2CCN(Cc3ccccc3)C2)c2ccccc12 (centres unmarked) [Compound 51] has an IC50 greater than 10 µM.
CCOC(=O)N1CCCC(Nc2n[nH]c(=O)c3ccccc23)CC1 (centres unmarked) [Compound 50] was tested, and the IC50 was greater than 10 µM.
Work on Cc1nnc(N2CCN(CCCC(c3ccc(F)cc3)c3ccc(F)cc3)CC2)c2ccccc12 [Compound 29] yielded an IC50 greater than 10 µM.
In the case of Cc1nc2ccccn2c(=O)c1CCN1CCN(c2nnc(C)c3ccccc23)CC1 [Compound 72], the IC50 is reported as greater than 10 µM.
For O=c1[nH]nc(N2CCC(c3cccc(C(F)(F)F)c3)C2)c2ccccc12 (centres unmarked) [Compound 55], the IC50 was 1.5 µM.
Work on O=c1[nH]nc(C2CCN(CCCCOc3ccccc3)CC2)c2ccccc12 [Compound 68] yielded an IC50 greater than 10 µM.
In the case of O=c1[nH]nc(C2CCN(CCCC(c3ccc(F)cc3)c3ccc(F)cc3)CC2)c2ccccc12 [Compound 67], the IC50 is reported as greater than 10 µM.
Clc1nnc(NC2CCN(CCCCOc3ccccc3)CC2)c2ccccc12 [Compound 59] showed an IC50 greater than 10 µM.
CN(c1nc2ccccc2s1)C1CCN(c2nnc(Cl)c3ccccc23)CC1 [Compound 61] showed an IC50 greater than 10 µM.
Compound Clc1nnc(NC2CCN(Cc3ccccc3)C2)c2ccccc12 (centres unmarked) [Compound 12] has an IC50 of 9.27 µM.
Work on CCOC(=O)N1[C@@H]2CC[C@H]1C[C@H](Nc1n[nH]c(=O)c3ccccc13)C2 [Compound 11] yielded an IC50 of 2.13 µM.
Work on O=c1[nH]nc(NC2CCN(CCCCOc3ccccc3)CC2)c2ccccc12 [Compound 46] yielded an IC50 greater than 10 µM.
Compound CCOC(=O)N1[C@@H]2CC[C@H]1C[C@H](Nc1nnc(Cl)c3ccccc13)C2 [Compound 24] has an IC50 of 4.37 µM.
Compound Cc1nc2scc(C)n2c(=O)c1CCN1CCN(c2nnc(C)c3ccccc23)CC1 [Compound 74] has an IC50 of 4.69 µM.
With Cc1nc2n(c(=O)c1CCN1CCN(c3nnc(C)c4ccccc34)CC1)CCS2 [Compound 75] the IC50 was greater than 10 µM.
O=c1[nH]nc(C2CCN(CCCOc3ccc(F)cc3)CC2)c2ccccc12 [Compound 13] showed an IC50 greater than 10 µM.
Cc1nnc(N2CCN(CCn3c(=O)[nH]c4ccccc4c3=O)CC2)c2ccccc12 [Compound 70] was tested, and the IC50 was 3.73 µM.
Compound O=c1[nH]nc(N[C@@H]2C[C@H]3CC[C@@H](C2)N3CCCC(c2ccc(F)cc2)c2ccc(F)cc2)c2ccccc12 [Compound 3] has an IC50 of 5.05 µM.
O=c1[nH]nc(C2CCN(c3ncccn3)CC2)c2ccccc12 [Compound 69] was tested, and the IC50 was 5.52 µM.
With CCOC(=O)N1CCC(c2n[nH]c(=O)c3ccccc23)CC1 [Compound 25] the IC50 was greater than 10 µM.
Work on CCOC(=O)N1CCC(Nc2n[nH]c(=O)c3ccccc23)C1 (centres unmarked) [Compound 48] yielded an IC50 greater than 10 µM.
In the case of Fc1ccc(C(CCCN2CCN(c3nnc(Cl)c4ccccc34)CC2)c2ccc(F)cc2)cc1 [Compound 57], the IC50 is reported as 5.08 µM.
